# Measured values reported in patent US8952024B2, “Herbicidal pyrimidone derivatives” (E I du Pont de Nemours and Company, priority 2009, dated 2015).
# Columns and labels:
# Type in all cases: in vivo
# corn (Zea mays) = test: Test A pre-/postemergence plant response; conditions: for Corn plant response rating: visual injury, 0 to 100 scale (0 no effect, 100 complete control), approx. ten days
# Procedure, shortened: (§1)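 Formulated test chemicals (non-phytotoxic solvent, surfactant) were sprayed onto soil right after planting and simultaneously onto young plants at one to two leaves, 2 to 10 cm tall. Plants stayed in the greenhouse about ten days; injury was then visually scored against untreated controls, from 0 (no effect) to 100 (complete control).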
# [1] = system: large crabgrass (Digitaria sanguinalis); test: Test A pre-/postemergence plant response; conditions: for Crabgrass, Large plant response rating: visual injury, 0 to 100 scale (0 no effect, 100 complete control), approx. ten days
# Procedure, shortened: as §1
# [2] = system: giant foxtail (Setaria faberii); test: Test A pre-/postemergence plant response; conditions: for Foxtail, Giant plant response rating: visual injury, 0 to 100 scale (0 no effect, 100 complete control), approx. ten days
# Procedure, shortened: as §1
# [3] = system: barnyardgrass (Echinochloa crus-galli); test: Test A pre-/postemergence plant response; conditions: for Barnyardgrass plant response rating: visual injury, 0 to 100 scale (0 no effect, 100 complete control), approx. ten days
# Procedure, shortened: as §1
# [4] = system: wheat (Triticum aestivum); test: Test A pre-/postemergence plant response; conditions: for Wheat plant response rating: visual injury, 0 to 100 scale (0 no effect, 100 complete control), approx. ten days
# Procedure, shortened: as §1
# [5] = system: pigweed (Amaranthus retroflexus); test: Test A pre-/postemergence plant response; conditions: for Pigweed plant response rating: visual injury, 0 to 100 scale (0 no effect, 100 complete control), approx. ten days
# Procedure, shortened: as §1
# [6] = system: morningglory (Ipomoea spp.); test: Test A pre-/postemergence plant response; conditions: for Morningglory plant response rating: visual injury, 0 to 100 scale (0 no effect, 100 complete control), approx. ten days
# Procedure, shortened: as §1
# [7] = system: velvetleaf (Abutilon theophrasti); test: Test A pre-/postemergence plant response; conditions: for Velvetleaf plant response rating: visual injury, 0 to 100 scale (0 no effect, 100 complete control), approx. ten days
# Procedure, shortened: as §1
# [8] = system: winter barley (Hordeum vulgare); test: Test B postemergence plant response; conditions: Postemergence
# Procedure, shortened: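 Visual ratings from 0 (no effect) to 100 (complete control), made against controls 13–15 days after treatment, kept in a greenhouse. Compounds were applied postemergence to potted plants at the 1- to 4-leaf stage (2–18 cm).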
# [9] = system: umbrella sedge (Cyperus difformis); test: Test B flooded paddy test; conditions: for Plant response rating, Flood, Sedge, Umbrella: 250 g ai/ha, flooded paddy test, visual rating on 0 to 100 scale (0 no effect, 100 complete control) after 13 to 15 days; for Plant response rating, Sedge, Umbrella: Flood (flooded paddy test), 13 to 15 days; for Sedge, Umbrella plant response rating: Flood, 31 g ai/ha, scale 0 to 100 (0 no effect, 100 complete control)
# Procedure, shortened: (§2)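 Plants were grown to the 2-leaf stage, then pots were flooded to 3 cm above the soil and compounds were applied directly into the paddy water. That depth was held throughout. After 13 to 15 days in a greenhouse, injury was visually rated against controls on a 0–100 scale.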
# [10] = system: barnyardgrass (Echinochloa crus-galli); test: Test B flooded paddy test; conditions: for Plant response rating, Flood, Barnyardgrass: 250 g ai/ha, flooded paddy test, visual rating on 0 to 100 scale (0 no effect, 100 complete control) after 13 to 15 days; for Plant response rating, Barnyardgrass: Flood (flooded paddy test), 13 to 15 days; for Barnyardgrass plant response rating: Flood, 31 g ai/ha, scale 0 to 100 (0 no effect, 100 complete control)
# Procedure, shortened: as §2
# [11] = system: ducksalad (Heteranthera limosa); test: Test B flooded paddy test; conditions: for Plant response rating, Flood, Ducksalad: 250 g ai/ha, flooded paddy test, visual rating on 0 to 100 scale (0 no effect, 100 complete control) after 13 to 15 days; for Plant response rating, Ducksalad: Flood (flooded paddy test), 13 to 15 days; for Ducksalad plant response rating: Flood, 31 g ai/ha, scale 0 to 100 (0 no effect, 100 complete control)
# Procedure, shortened: as §2
# rice (Oryza sativa) = test: Test B flooded paddy test; conditions: for Plant response rating, Flood, Rice: 250 g ai/ha, flooded paddy test, visual rating on 0 to 100 scale (0 no effect, 100 complete control) after 13 to 15 days; for Plant response rating, Rice: Flood (flooded paddy test), 13 to 15 days; for Rice plant response rating: Flood, 31 g ai/ha, scale 0 to 100 (0 no effect, 100 complete control)
# Procedure, shortened: as §2
# [12] = Postemergence, 125 g ai/ha, 0 to 100 scale where 0 is no effect and 100 is complete control
# [13] = Preemergence, 125 g ai/ha, 0 to 100 scale, 0 = no effect, 100 = complete control
# [14] = Preemergence, 500 g ai/ha, 0 to 100 scale, 0 = no effect, 100 = complete control
# [15] = 31 g ai/ha, 0 to 100 scale (0 no effect, 100 complete control)
# [16] = 62 g ai/ha, scale 0 to 100 (0 no effect, 100 complete control)
# [17] = 62 g ai/ha, scale of 0 to 100 where 0 is no effect and 100 is complete control
# [18] = 125 g ai/ha, scale 0 to 100, 0 is no effect, 100 is complete control
smiles,measurement,setting,value
COCCn1c(-c2cccc(F)c2)ncc(C(=O)C2=C(O)C3CCC(C3)C2=O)c1=O (stereo not shown) [Compound 235],"Plant response rating, Corn",corn (Zea mays); [12],80
same,Corn plant response rating,"corn (Zea mays); Postemergence, 500 g ai/ha",90
same,"Plant response rating, Corn",corn (Zea mays); [13],20
same,"Plant response rating, Corn",corn (Zea mays); [14],70
same,"Plant response rating, Crabgrass, Large",[1]; [12],100
same,"Crabgrass, Large plant response rating","[1]; Postemergence, 500 g ai/ha",100
same,"Plant response rating, Crabgrass, Large",[1]; [13],100
same,"Plant response rating, Crabgrass, Large",[1]; [14],100
same,"Plant response rating, Foxtail, Giant",[2]; [12],90
same,"Foxtail, Giant plant response rating","[2]; Postemergence, 500 g ai/ha",100
same,"Plant response rating, Foxtail, Giant",[2]; [13],70
same,"Plant response rating, Foxtail, Giant",[2]; [14],90
same,"Plant response rating, Barnyardgrass",[3]; [12],90
same,Barnyardgrass plant response rating,"[3]; Postemergence, 500 g ai/ha",100
same,"Plant response rating, Barnyardgrass",[3]; [13],90
same,"Plant response rating, Barnyardgrass",[3]; [14],100
same,"Plant response rating, Wheat",[4]; [12],50
same,Wheat plant response rating,"[4]; Postemergence, 500 g ai/ha",80
same,"Plant response rating, Wheat",[4]; [13],10
same,"Plant response rating, Wheat",[4]; [14],40
same,"Plant response rating, Pigweed",[5]; [12],100
same,Pigweed plant response rating,"[5]; Postemergence, 500 g ai/ha",100
same,"Plant response rating, Pigweed",[5]; [13],90
same,"Plant response rating, Pigweed",[5]; [14],90
same,"Plant response rating, Morningglory",[6]; [12],100
same,Morningglory plant response rating,"[6]; Postemergence, 500 g ai/ha",100
same,"Plant response rating, Morningglory",[6]; [13],80
same,"Plant response rating, Morningglory",[6]; [14],90
same,"Plant response rating, Velvetleaf",[7]; [12],100
same,Velvetleaf plant response rating,"[7]; Postemergence, 500 g ai/ha",100
same,"Plant response rating, Velvetleaf",[7]; [13],100
same,"Plant response rating, Velvetleaf",[7]; [14],100
same,"Plant response rating, Barley",[8]; [15],0
same,"Plant response rating, Barley",[8]; [16],30
same,"Plant response rating, Barley","[8]; 125 g ai/ha, scale 0 to 100 (0 no effect, 100 complete control)",40
same,"Plant response rating, Flood, Sedge, Umbrella",[9],80
same,"Plant response rating, Sedge, Umbrella",[9]; [17],70
same,"Plant response rating, Sedge, Umbrella",[9]; [18],80
same,"Sedge, Umbrella plant response rating",[9],0
same,"Plant response rating, Flood, Barnyardgrass",[10],75
same,"Plant response rating, Barnyardgrass",[10]; [17],20
same,"Plant response rating, Barnyardgrass",[10]; [18],50
same,Barnyardgrass plant response rating,[10],0
same,"Plant response rating, Flood, Ducksalad",[11],100
same,"Plant response rating, Ducksalad",[11]; [17],95
same,"Plant response rating, Ducksalad",[11]; [18],100
same,Ducksalad plant response rating,[11],95
same,"Plant response rating, Flood, Rice",rice (Oryza sativa),55
same,"Plant response rating, Rice",rice (Oryza sativa); [17],0
same,"Plant response rating, Rice",rice (Oryza sativa); [18],45
same,Rice plant response rating,rice (Oryza sativa),0
CCCCn1c(-c2cccc(F)c2)ncc(C(=O)C2=C(O)C3CCC(C3)C2=O)c1=O (stereo not shown) [Compound 237],"Plant response rating, Corn",corn (Zea mays); [12],40
same,Corn plant response rating,"corn (Zea mays); Postemergence, 500 g ai/ha",80
same,"Plant response rating, Corn",corn (Zea mays); [13],0
same,"Plant response rating, Corn",corn (Zea mays); [14],50
same,"Plant response rating, Crabgrass, Large",[1]; [12],80
same,"Crabgrass, Large plant response rating","[1]; Postemergence, 500 g ai/ha",100
same,"Plant response rating, Crabgrass, Large",[1]; [13],40
same,"Plant response rating, Crabgrass, Large",[1]; [14],100
same,"Plant response rating, Foxtail, Giant",[2]; [12],90
same,"Foxtail, Giant plant response rating","[2]; Postemergence, 500 g ai/ha",100
same,"Plant response rating, Foxtail, Giant",[2]; [13],40
same,"Plant response rating, Foxtail, Giant",[2]; [14],90
same,"Plant response rating, Barnyardgrass",[3]; [12],100
same,Barnyardgrass plant response rating,"[3]; Postemergence, 500 g ai/ha",100
same,"Plant response rating, Barnyardgrass",[3]; [13],20
same,"Plant response rating, Barnyardgrass",[3]; [14],90
same,"Plant response rating, Wheat",[4]; [12],20
same,Wheat plant response rating,"[4]; Postemergence, 500 g ai/ha",70
same,"Plant response rating, Wheat",[4]; [13],0
same,"Plant response rating, Wheat",[4]; [14],30
same,"Plant response rating, Pigweed",[5]; [12],90
same,Pigweed plant response rating,"[5]; Postemergence, 500 g ai/ha",100
same,"Plant response rating, Pigweed",[5]; [13],30
same,"Plant response rating, Pigweed",[5]; [14],100
same,"Plant response rating, Morningglory",[6]; [12],100
same,Morningglory plant response rating,"[6]; Postemergence, 500 g ai/ha",100
same,"Plant response rating, Morningglory",[6]; [13],10
same,"Plant response rating, Morningglory",[6]; [14],80
same,"Plant response rating, Velvetleaf",[7]; [12],100
same,Velvetleaf plant response rating,"[7]; Postemergence, 500 g ai/ha",100
same,"Plant response rating, Velvetleaf",[7]; [13],80
same,"Plant response rating, Velvetleaf",[7]; [14],100
same,"Plant response rating, Barley",[8]; [15],5
same,"Plant response rating, Barley",[8]; [16],15
same,"Plant response rating, Barley","[8]; 125 g ai/ha, scale 0 (no effect) to 100 (complete control), 13 to 15 days",40
same,"Plant response rating, Barley","[8]; 250 g ai/ha, scale 0 to 100 (0 no effect, 100 complete control), 13 to 15 days",40
same,"Plant response rating, Flood, Sedge, Umbrella",[9],100
same,"Plant response rating, Sedge, Umbrella",[9]; [17],45
same,"Plant response rating, Sedge, Umbrella",[9]; [18],55
same,"Sedge, Umbrella plant response rating",[9],0
same,"Plant response rating, Flood, Barnyardgrass",[10],30
same,"Plant response rating, Barnyardgrass",[10]; [17],0
same,"Plant response rating, Barnyardgrass",[10]; [18],0
same,Barnyardgrass plant response rating,[10],0
same,"Plant response rating, Flood, Ducksalad",[11],100
same,"Plant response rating, Ducksalad",[11]; [17],65
same,"Plant response rating, Ducksalad",[11]; [18],90
same,Ducksalad plant response rating,[11],0
same,"Plant response rating, Flood, Rice",rice (Oryza sativa),45
same,"Plant response rating, Rice",rice (Oryza sativa); [17],0
same,"Plant response rating, Rice",rice (Oryza sativa); [18],0
same,Rice plant response rating,rice (Oryza sativa),0
